Measurements published in publication PMC12157126, “Saturation kinetics and specificity of transporters for L-arginine and asymmetric dimethylarginine (ADMA) at the blood-brain and blood-CSF barriers” (PLOS One, 2025).
Where “and” joins values, the source holds several entries; their conditions need not be identical. Equal values may be shown once. Read-outs that look alike come from different tables or passages of the source.

Tests used:
[1] = system: blood-brain and blood-CSF barriers; settings: male, BALB/c, mouse, in vivo, 10 min
Protocol: The in situ brain/choroid plexus perfusion method was performed as previously described and will only be briefly detailed here. […] At the end of the perfusion period a CSF sample was taken from the cisterna magna, the animal was decapitated, the brain removed and samples taken under a Leica S4E L2 stereomicroscope (Leica; Buckinghamshire, UK). […] The circumventricular organs (CVOs) including the choroid plexus, pituitary gland and pineal gland were also sampled. Brain samples were also taken for capillary depletion analysis.
It is specifically used in brain samples (including brain homogenate and brain supernatant) to measure the vascular space at all perfusion time points. At later time points, in particular, it may also represent the capillary endothelial cell volume and/ or diffusion across the brain capillary wall and into the brain interstitial fluid. In the pellet samples it will measure extracellular fluid and may also represent capillary endothelial cell volume. […] It may also represent any accumulation into the cells of the choroid plexus.

CAT-1 = CAT-1 transports ADMA; cited from earlier work
[2] = system: blood-brain and blood-CSF barriers; assay: Self-inhibition experiments: [3H]-ADMA uptake with 0.5-500 μM unlabelled ADMA and kinetic constants (Km, Vmax, Kd); type: in vivo, adult male BALB/c mice; parameters: [3H] ADMA, hippocampus / [3H] ADMA, thalamus: unit not given beside the values
NO production = system: NO production; parameters: method as in PMID 17082183; settings: cited from earlier work
[3] = CONTROL, 10 mins, 5ml/min, single mice

SMILES | distribution into capillary endothelial cells, times lower than into choroid plexus [1] [times] | Km (CAT-1) [µM] | decrease of [3H]-ADMA uptake ([2]; 500 μM unlabelled ADMA, frontal cortex) [%] | effect on uptake of [3H]-ADMA (62.5 nM) ([2]; 0.5, 3.0, 10, 100 and 500μM un-labelled ADMA, all brain regions) | Difference ([3H] ADMA minus [14C] Sucrose), hippocampus [2, 3] | Difference ([3H] ADMA minus [14C] Sucrose), hypothalamus [2, 3] | Difference ([3H] ADMA minus [14C] Sucrose), occipital cortex [2, 3] | Difference ([3H] ADMA minus [14C] Sucrose), thalamus [2, 3] | [3H] ADMA, hippocampus [2, 3] | [3H] ADMA, hypothalamus [2, 3] | [3H] ADMA, occipital cortex [2, 3] | [3H] ADMA, supernatant [2, 3] | [3H] ADMA, thalamus [2, 3] | inhibition of NO production (NO production; normal ADMA concentrations within cells) [%] | inhibition of NO production (NO production; plasma ADMA concentrations higher than normal) [%]
OC[C@H]1O[C@@](CO)(O[C@H]2O[C@H](CO)[C@@H](O)[C@H](O)[C@H]2O)[C@@H](O)[C@@H]1O [[^14C]-sucrose, sucrose] | 31.4 | – | – | – | – | – | – | – | – | – | – | – | – | – | –
CN(C)C(N)=NCCC[C@H](N)C(=O)O.Cl.Cl [unlabelled ADMA, N^G,N^G-dimethylarginine dihydrochloride] | – | 183 ± 21 | 79.9 | significantly self-inhibited | 0.1991 and 0.2866 and 0.2044 and 0.2062 | 0.21 and 0.3614 and 0.2746 and 0.3021 | 0.1943 and 0.2753 and 0.1841 and 0.2419 and 0.2303 | 0.1695 and 0.2656 and 0.1763 and 0.2233 and 0.2154 | 0.2134 and 0.305 and 0.2049 and 0.2208 and 0.2239 | 0.2341 and 0.3969 and 0.298 and 0.3627 and 0.4134 | 0.2132 and 0.2962 and 0.2074 and 0.2625 and 0.2565 | 0.1192 and 0.1611 and 0.1028 and 0.139 and 0.1685 | 0.1804 and 0.2881 and 0.1916 and 0.2507 and 0.2348 | 10 | 70
